This passage reports IC50 and inhibition results from ChEMBL document CHEMBL1138861, “Design, synthesis, and biological evaluation of phenylamino-substituted 6,11-dihydro-dibenzo[b,e]oxepin-11-ones and dibenzo[a,d]cycloheptan-5-ones: novel p38 MAP kinase inhibitors” (J Med Chem, 2006).

Series [1] addresses Mitogen-activated protein kinase 14 (Homo sapiens, UniProt Q16539).
Another series addresses CYP2C19 (Homo sapiens, UniProt P33261). In words: Inhibition of CYP2C19 at 10 uM. The format is ADME.
For another series, the target named is CYP3A4 (Homo sapiens, UniProt P08684). In words: Inhibition of CYP3A4 at 10 uM. The format is ADME.
For the next series, the target named is CYP2D6 (Homo sapiens, UniProt P10635). In words: Inhibition of CYP2D6 at 10 uM. The series is classed as ADME.
Chain of CYP2D6 (P10635 whole entry): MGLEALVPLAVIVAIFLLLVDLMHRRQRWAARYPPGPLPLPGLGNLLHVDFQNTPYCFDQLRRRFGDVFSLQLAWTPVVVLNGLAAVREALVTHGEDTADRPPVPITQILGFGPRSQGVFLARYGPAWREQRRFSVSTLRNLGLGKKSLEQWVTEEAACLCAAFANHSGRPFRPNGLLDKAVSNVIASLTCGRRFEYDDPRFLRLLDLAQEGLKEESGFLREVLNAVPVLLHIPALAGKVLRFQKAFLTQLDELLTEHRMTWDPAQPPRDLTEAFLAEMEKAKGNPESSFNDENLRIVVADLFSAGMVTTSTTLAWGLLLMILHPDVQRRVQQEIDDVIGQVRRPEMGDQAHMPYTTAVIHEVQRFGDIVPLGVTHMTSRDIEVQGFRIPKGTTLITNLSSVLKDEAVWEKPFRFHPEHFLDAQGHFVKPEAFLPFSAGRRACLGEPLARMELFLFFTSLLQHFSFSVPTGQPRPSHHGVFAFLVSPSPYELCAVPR

Chain of Mitogen-activated protein kinase 14 (Q16539 whole entry): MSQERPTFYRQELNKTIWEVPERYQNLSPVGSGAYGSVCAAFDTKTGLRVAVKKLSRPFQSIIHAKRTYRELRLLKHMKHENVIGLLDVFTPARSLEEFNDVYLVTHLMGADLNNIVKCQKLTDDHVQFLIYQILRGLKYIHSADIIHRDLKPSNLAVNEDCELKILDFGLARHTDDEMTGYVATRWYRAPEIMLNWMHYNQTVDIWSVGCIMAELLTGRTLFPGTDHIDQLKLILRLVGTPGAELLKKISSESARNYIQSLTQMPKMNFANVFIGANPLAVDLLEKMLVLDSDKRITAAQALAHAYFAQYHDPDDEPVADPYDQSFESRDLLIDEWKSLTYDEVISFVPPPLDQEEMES
Chain of CYP2C19 (P33261 whole entry): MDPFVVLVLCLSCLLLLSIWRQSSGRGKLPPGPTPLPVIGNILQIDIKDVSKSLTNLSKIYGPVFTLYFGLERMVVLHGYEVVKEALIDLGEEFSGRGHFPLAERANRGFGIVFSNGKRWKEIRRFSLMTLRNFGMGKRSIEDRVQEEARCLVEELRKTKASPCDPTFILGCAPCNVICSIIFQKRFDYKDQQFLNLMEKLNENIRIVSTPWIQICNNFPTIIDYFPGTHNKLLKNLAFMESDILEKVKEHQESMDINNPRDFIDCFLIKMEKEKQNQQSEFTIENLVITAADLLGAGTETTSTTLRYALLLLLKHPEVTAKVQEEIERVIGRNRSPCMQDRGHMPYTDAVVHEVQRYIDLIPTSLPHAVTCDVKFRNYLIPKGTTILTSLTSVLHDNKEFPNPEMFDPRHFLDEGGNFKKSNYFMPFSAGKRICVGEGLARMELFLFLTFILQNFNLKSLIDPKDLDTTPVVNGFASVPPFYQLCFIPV
Chain of CYP3A4 (P08684 whole entry): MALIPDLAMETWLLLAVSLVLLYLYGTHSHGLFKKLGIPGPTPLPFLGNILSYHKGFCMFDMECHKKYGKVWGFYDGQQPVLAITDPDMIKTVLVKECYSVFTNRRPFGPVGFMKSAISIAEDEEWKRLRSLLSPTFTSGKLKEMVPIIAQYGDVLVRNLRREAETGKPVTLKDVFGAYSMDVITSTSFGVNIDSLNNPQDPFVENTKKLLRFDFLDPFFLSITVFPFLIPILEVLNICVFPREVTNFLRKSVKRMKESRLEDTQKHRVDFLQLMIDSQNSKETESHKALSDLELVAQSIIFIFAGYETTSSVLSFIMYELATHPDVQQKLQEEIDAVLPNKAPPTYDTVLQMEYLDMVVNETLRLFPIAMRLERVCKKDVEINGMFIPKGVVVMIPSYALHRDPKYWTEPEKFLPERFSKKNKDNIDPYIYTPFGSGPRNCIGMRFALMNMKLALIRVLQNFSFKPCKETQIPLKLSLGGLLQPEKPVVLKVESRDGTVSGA

In series [1], `Cc1ccccc1C(=O)c1ccc(Nc2ccccc2)cc1Cl` registered an IC50 of 190 nM.

`Nc1cc(F)ccc1Nc1ccc2c(c1)OCc1ccccc1C2=O` came in with an IC50 in series [1] of 38 nM.

On to `Nc1ccccc1Nc1ccc2c(c1)CCc1ccccc1C2=O`, for which the inhibition at 10 µM came to 53% at CYP2C19, 70% on CYP3A4 and 42% at CYP2D6.

Consider `Nc1ccccc1Nc1ccc2c(c1)COc1ccccc1C2=O`, for which, in series [1], the IC50 was 3060 nM.

Consider `Nc1ccc(Nc2ccc3c(c2)OCc2ccccc2C3=O)c(F)c1`, for which the IC50 in series [1] stood at 1320 nM.

As for `Nc1ccc(Nc2ccc3c(c2)OCc2ccccc2C3=O)c(N)c1`, the IC50 in series [1] is > 5000 nM.

The molecule `Nc1ccc(Nc2ccc3c(c2)CCc2ccccc2C3=O)cc1` gave an IC50 in series [1] of 1170 nM.

`Nc1ccc(Nc2ccc3c(c2)OCc2ccccc2C3=O)cc1`: the IC50 in series [1] is > 5000 nM.

`Nc1ccccc1Nc1ccc2c(=O)c3ccccc3ccc2c1` displayed an IC50 in series [1] of 1060 nM.

In the case of `Nc1ccccc1Nc1ccc2c(c1)SCc1ccccc1C2=O`, in series [1], half-maximal inhibition (IC50) required 196 nM.

Take `O=C1c2ccccc2COc2cc(Nc3ccc(Br)cc3Br)ccc21`: the IC50 in series [1] was > 5000 nM.

Molecule `Nc1cccc(Nc2ccc3c(c2)OCc2ccccc2C3=O)c1` displayed an IC50 in series [1] of 1220 nM.

In series [1], `O=C1c2ccccc2COc2cc(Nc3ccc(Cl)cc3Cl)ccc21` gave a 50% inhibitory concentration (IC50) of 3020 nM.

Consider `O=C1c2ccccc2COc2cc(Nc3ccc(F)cc3F)ccc21`, for which, in series [1], the IC50 was 239 nM.

Regarding `C[S+]([O-])c1ccc(-c2nc(-c3ccncc3)c(-c3ccc(F)cc3)[nH]2)cc1` (centres undefined) [SB-203580], the results for the inhibition at 10 µM against CYP2C19, on CYP3A4 and on CYP2D6 were 92%, 77% and 73%, respectively.

The IC50 is the point on the concentration scale where inhibition reaches its midpoint. The low end stands for greater potency in that assay, the high end for weaker potency in that assay. As usually defined, the inhibition is the share of the control response that was lost under treatment. Read a high inhibition as a response far below the control.
